Read-outs that look alike come from different tables or passages of the source.
Assays:
Format in all cases: physicochemical
[1] = Adsorption of aromatic substances on CTS crystalline anhydrate (Example C-3)
Protocol: The following explains the experimental method in detail. […] The amount of the adsorbed aromatic substances was calculated by measuring the weight of the resulting powders and subtracting their starting powder weight (4 g).

[2] = Adsorption and 10-day retention of lavender oil, citronellol or phenethyl alcohol on saccharides (Example C-4); conditions: for Amount of the Adsorbed Substance: freshly prepared sample; for Relative Amount of the Retained Substance: preserved at 25° C. for 10 days vs freshly prepared
Description: The following example is a test to confirm the effect of CTS crystalline hydrate, CTS crystalline anhydrate, or CTS amorphous anhydrate on retaining, as an aromatic substance, lavender oil, citronellol, or phenethyl alcohol. CTS crystalline pentahydrate prepared by the method described in Example B-3, CTS crystalline anhydrate in Example B-5, and CTS amorphous anhydrate in Example B-6 were used as the test saccharides “ISOELEAT P®”, a branched cyclodextrin commercialized by Maruha Corporation, Tokyo, Japan, was used as a control.
In the case of lavender oil, five parts by weight of each of the above saccharides were taken into a glass dish sized 90 mm in diameter and 20 mm in depth, admixed with one part by weight of lavender oil by stirring. Lavender oil was measured by the method described as follows; admixing 2 ml of diethyl ether with 1 g of each of the above samples freshly prepared or after preserved at 25° C. for 10 days; measuring the extracted lavender oil by gas chromatography using “GC-14B” (a gas chromatography commercialized by Shimazu corporation, Kyoto, Japan) equipped with “TC-Wax” (a capillary column sized 0.53 mm in diameter and 25 m in length commercialized by GL Sciences Inc., Tokyo, Japan.
In the case of citronellol or phenethyl alcohol, five parts by weight of each of the above saccharides were taken into a glass dish sized 90 mm in diameter and 20 mm in depth, admixed with one part by weight of citronellol or phenethyl alcohol, and mixed by stirring. The adsorbed citronellol or phenethyl alcohol was measured by admixing 2 ml of diethyl ether with 1 g of each of the above sample freshly prepared or after preserved at 25° C. for 10 days, and measuring the extracted lavender oil by gas chromatography using “GC-14B” (a gas chromatography device commercialized by Shimazu corporation, Kyoto, Japan) equipped with “DB-5” (a capillary column sized 0.25 mm in diameter and 30 m in length commercialized by GL Sciences Inc., Tokyo, Japan).
The amount of the retained aromatic substance in each sample was calculated using the following formula, and the results were shown in Table 4.
Formula: Relative amount of the retained Substance (%)={(an amount of aromatic substance in a sample preserved for 10 days)/(an amount of aromatic substance in a freshly prepared sample)}×100

[3] = Adsorption of liquid ethanol or acetic acid on saccharide powder (Example C-1); conditions: until mixture did not keep a powder form; for Amount of Adsorbed Acetic Acid: acetic acid adsorbed on 1 g of saccharide; for Amount of Adsorbed Ethanol: ethanol adsorbed on 1 g of saccharide
Description: CTS crystalline pentahydrate, prepared by the method described in Example B-3, CTS crystalline monohydrate, prepared by the method described in Example B-4, CTS crystalline anhydrate, prepared by the method described in Example B-5, or CTS amorphous anhydrate prepared by the method described in Example B-6, was used for preparation of aroma-retaining material. “ISOELEAT P™”, a branched cyclodextrin commercialized by Maruha corporation, Tokyo, Japan, anhydrous trehalose prepared by the method described in Japanese Patent Kokai No. 111,284/97, “PINEFIBRE™”, a dextrin commercialized by Matsutani Chemical Industries Co., Ltd., Tokyo, Japan, or soluble starch in a reagent grade commercialized by Katayama Chemical Industries, Co., Ltd., Tokyo, Japan, was dried in vacuo at 80° C. for 16 hours as control saccharides. […] The resulting mixture was weighed. The weight of ethanol or acetic acid was calculated by subtracting the pre-measured saccharide weight. The weight of ethanol or acetic acid adsorbed on 1 g of each saccharide was in Table 1.

[4] = citronellol, listed as Sample 3
[5] = lavender oil, listed as Sample 3
[6] = phenethyl alcohol, listed as Sample 3
[7] = aromatic substance adsorbed per 1 g of CTS crystalline anhydrate
[8] = citronellol, listed as Sample 1
[9] = lavender oil, listed as Sample 1
[10] = phenethyl alcohol, listed as Sample 1

Molecule | Amount of Adsorbed Substance [1, 7] [g] | further results
CCOCC [Diethyl Ether] |  | Amount of Adsorbed Substance [1]: 0.17 g
OCC1OC2OCC3O[C@H](O[C@H]4C(O)C(CO)OC(OCC5O[C@H](O[C@@H](C1O)C2O)C(O)C(O)[C@@H]5O)C4O)C(O)C(O)[C@@H]3O (some centres unmarked) [CTS amorphous anhydrate] |  | Adsorbing capability relative to branched cyclodextrin ([2]; citronellol): about 1.2 fold; Amount of the Adsorbed Substance ([2]; citronellol): 190 mg/g saccharide; Amount of the Adsorbed Substance [2, 4]: 190 mg/g saccharide; Relative Amount of the Retained Substance [2, 4]: 40%; Adsorbing capacity relative to branched cyclodextrin ([2]; lavender oil): about 1.3 fold; Amount of the Adsorbed Substance ([2]; lavender oil, listed as CTS amorphous anhydrte): 185 mg/g saccharide; Amount of the Adsorbed Substance [2, 5]: 185 mg/g saccharide; Relative Amount of the Retained Substance [2, 5]: 8%; Amount of the Adsorbed Substance ([2]; phenethyl alcohol): 180 mg/g saccharide; Amount of the Adsorbed Substance [2, 6]: 180 mg/g saccharide; Relative Amount of the Retained Substance [2, 6]: 12%; Amount of Adsorbed Acetic Acid [3]: 0.47 g; Amount of Adsorbed Ethanol [3]: 0.49 g
CCCCCC(=O)O [Capronic Acid] | 0.47 | 
CCCCCO [1-Pentanol] | 0.31 | 
COc1ccccc1O [o-Methoxyphenol] | 0.42 | 
CCCCC(=O)O [Valeric Acid] | 0.47 | 
C=CCN=C=S [Allylisothiocyanate] | 0.37 | 
OCC1OC2OCC3O[C@H](O[C@H]4C(O)C(CO)OC(OCC5O[C@H](O[C@@H](C1O)C2O)C(O)C(O)[C@@H]5O)C4O)C(O)C(O)[C@@H]3O (some centres unmarked) [CTS crystalline monohydrate] |  | Amount of Adsorbed Acetic Acid [3]: 0.35 g; Amount of Adsorbed Ethanol [3]: 0.45 g
CC1=CCC2CC1C2(C)C (stereo not drawn) [α-Pinene] | 0.35 | 
CCO [Ethanol] | 0.50 | 
NCCO [2-Aminoethanol] | 0.13 | 
Cc1ccccc1 [Toluene] |  | Amount of Adsorbed Substance [1]: 0.29 g
OCC1OC2OCC3O[C@H](O[C@H]4C(O)C(CO)OC(OCC5O[C@H](O[C@@H](C1O)C2O)C(O)C(O)[C@@H]5O)C4O)C(O)C(O)[C@@H]3O (some centres unmarked) [CTS crystalline pentahydrate] |  | Amount of the Adsorbed Substance ([2]; citronellol, listed as CTS crystalline hydrate): 155 mg/g saccharide; Amount of the Adsorbed Substance [2, 8]: 155 mg/g saccharide; Relative Amount of the Retained Substance [2, 8]: 30%; Amount of the Adsorbed Substance ([2]; lavender oil, listed as CTS crystalline hydrate): 150 mg/g saccharide; Amount of the Adsorbed Substance [2, 9]: 150 mg/g saccharide; Relative Amount of the Retained Substance [2, 9]: 1%; Amount of the Adsorbed Substance ([2]; phenethyl alcohol, listed as CTS crystalline hydrate): 140 mg/g saccharide; Amount of the Adsorbed Substance [2, 10]: 140 mg/g saccharide; Relative Amount of the Retained Substance [2, 10]: 3%; Amount of Adsorbed Acetic Acid [3]: 0.27 g; Amount of Adsorbed Ethanol [3]: 0.32 g
OCCCCO [1,4-Butanediol] |  | Amount of Adsorbed Substance [1]: 0.28 g
CCCCCCO [1-Hexanol] | 0.41 | 
CC(C)=CCCC(C)CCO (centres unmarked) [Citronellol] | 0.39 | 
3-Methyl-1-Propanol | 0.36 | 
O=CO [Formic Acid] |  | Amount of Adsorbed Substance [1]: 0.24 g
CC(=O)O [Acetic Acid] | 0.47 | 
1-Propanol | 0.46 | 
CC(C)(C)N=C=S [t-Butylisothiocyanate] | 0.36 | 
ClC(Cl)Cl [Chloroform] |  | Amount of Adsorbed Substance [1]: 0.32 g
CC1=CCC(C(C)(C)O)CC1 (stereo not drawn) [α-Terpineol] | 0.33 | 
Bornylacetate | 0.48 | 

Molecule | Amount of Adsorbed Substance [1, 7] [g] | further results
CC(C)=CCCC(C)CC=O (centres unmarked) [Citronellal] | 0.46 | 
CCCC(=O)O [Butyric Acid] | 0.55 | 
C=C(C)[C@H]1CC=C(C)CC1 [Limonene] | 0.42 | 
CC1=CCC(O)(C(C)C)CC1 (centres unmarked) [Terpinen-4-ol] | 0.34 | 
CC1=CC=C(C(C)C)CC1 [α-Terpinene] | 0.37 | 
OCCc1ccccc1 [Phenethyl Alcohol] | 0.40 | 
CCC(=O)O [Propionic Acid] | 0.50 | 
CC(C)c1cccc(=O)c(O)c1 [Hinokithiol] | 0.29 | 
CC(=O)CC(C)(C)O [Diacetone Alcohol] | 0.28 | 
CCCCCCCC(=O)O [Octanic Acid] | 0.47 | 
CC(C)=CCC/C(C)=C/CO [Geraniol] | 0.32 | 
OCc1ccccc1 [Benzyl Alcohol] | 0.43 | 
CO [Methanol] |  | Amount of Adsorbed Substance [1]: 0.61 g
c1ccccc1 [Benzene] | 0.14 | 
ClCc1ccccc1 [Benzyl Chloride] | 0.32 | 
C=C1CCC2CC1C2(C)C (stereo not drawn) [β-Pinene] | 0.30 | 
CCCCCCCCO [1-Octanol] | 0.28 | 
C=CC(C)(O)CCC=C(C)C (centres unmarked) [Linalool] | 0.42 | 
CC(C)C(=O)O [Isobutyric Acid] | 0.51 | 
CC(C)CO [2-Methyl-1-Propanol] | 0.36 | 
CC(C)(C)O [2-Methyl-2-Propanol] |  | Amount of Adsorbed Substance [1]: 0.32 g
OCCCc1ccccc1 [3-Phenyl-1-Propanol] | 0.52 | 
CCCCCOC(C)=O [Pentylacetate] | 0.46 | 
CC(C)O [2-Propanol] | 0.48 | 

Source: patent US20050013914A1, “Method of sustaining aroma and use thereof” (priority 2001, published 2005)
